Experimental data as given in PubChem BioAssay (NCI).
Values joined by “and” are separate entries in the source; they are usually repeats but may differ in a detail not shown here. Equal entries are not always repeated.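 These data come from cells grown in 96-well plates and exposed to compound for 48 hours at five concentrations. GI50: concentration for 50% inhibition of growth. TGI denotes the concentration required for complete inhibition of growth.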

Columns and labels:
Assay in all cases: NCI-60 cell line screen, 48 h
786-0 renal = test system: 786-0 renal
A498 renal = test system: A498 renal
LOX IMVI melanoma = test system: LOX IMVI melanoma
U251 CNS = test system: U251 CNS
UO-31 renal = test system: UO-31 renal
HT29 colon = test system: HT29 colon
KM12 colon = test system: KM12 colon
SK-MEL-5 melanoma = test system: SK-MEL-5 melanoma
UACC-257 melanoma = test system: UACC-257 melanoma
PC-3 prostate = test system: PC-3 prostate

SMILES | TGI (786-0 renal) | TGI (A498 renal) | TGI (LOX IMVI melanoma) | TGI (U251 CNS) | TGI (UO-31 renal) | TGI (HT29 colon) | TGI (KM12 colon) | TGI (SK-MEL-5 melanoma) | TGI (UACC-257 melanoma) | GI50 (786-0 renal) | GI50 (A498 renal) | GI50 (KM12 colon) | GI50 (LOX IMVI melanoma) | GI50 (PC-3 prostate) | TGI (PC-3 prostate) | GI50 (SK-MEL-5 melanoma) | GI50 (UACC-257 melanoma) | GI50 (UO-31 renal) | GI50 (HT29 colon) | GI50 (U251 CNS)
Cc1n[nH]c(=S)n(C)c1=S | > 100 µM | > 100 µM | > 100 µM | > 100 µM | > 100 µM | – | – | – | – | – | – | – | – | – | – | – | – | – | – | –
COC(=O)c1ccccc1N(C(=O)c1ccccc1)c1ccccc1C | > 100 µM | 80.1 µM | > 100 µM | > 100 µM | > 100 µM | > 100 µM | > 100 µM | > 100 µM | > 100 µM | – | – | – | – | – | – | – | – | – | – | –
CCOC(=O)C(=O)Nc1nc2c(OCC)cccc2s1 | > 100 µM | > 100 µM | > 100 µM | > 100 µM | > 100 µM | > 100 µM | > 100 µM | > 100 µM | > 100 µM | – | – | – | – | – | – | – | – | – | – | –
COc1cc(C2CC(c3cccc(Nc4ccnc5cc(Cl)ccc45)c3)=NN2c2ccc(Cl)cc2)cc(OC)c1OC (configuration not stated) | 26.2 µM | 91.5 µM | > 100 µM | – | 15.3 µM | – | 93.6 µM | 4.05 µM | > 100 µM | 2.05 µM | 4.65 µM | 818 nM | 647 nM | 0.819 µM | > 100 µM | 1370 nM | 3.45 µM | 0.489 µM | – | –
N.N.N.N.N.NC(=O)[O-].[Co+3].[I-] | > 100 µM | > 100 µM | > 100 µM | > 100 µM | > 100 µM | > 100 µM | > 100 µM | > 100 µM | > 100 µM | > 100 µM | > 100 µM | > 100000 nM | > 100000 nM | – | – | > 100000 nM | > 100 µM | > 100 µM | > 100 µM | > 100 µM
CC(C)N(O)C(=N)c1ccccc1 | > 100 µM | – | > 100 µM | > 100 µM | > 100 µM | > 100 µM | > 100 µM | > 100 µM | > 100 µM | – | – | – | – | – | – | – | – | – | – | –
Cc1ccc(-c2nc3ccccc3c(=O)n2NCC2(O)OCC(O)C(O)C2O)cc1 (configuration not stated) | > 100 µM | > 100 µM | > 100 µM | > 100 µM | > 100 µM | > 100 µM | > 100 µM | > 100 µM | > 100 µM | – | – | – | – | – | – | – | – | – | – | –
C=C(CO)CC(O)c1cc(OC)ccc1OC (configuration not stated) | > 100 µM | – | > 100 µM | > 100 µM | > 100 µM | > 100 µM | > 100 µM | > 100 µM | > 100 µM | – | – | – | – | – | – | – | – | – | – | –
COC(=O)C1=C(O)[C@H](C(=O)OC)C2(O)C(C(=O)OC)[C@H](c3ccc(OC(=O)C(C)c4ccccc4)cc3)C[C@@H]1[C@@H]2C(=O)OC (some centres not stated) | > 50 µM | – | 16.2 µM | > 50 µM | > 50 µM | – | 31.4 µM | 23 µM | > 50 µM | 38.9 µM | – | 10600 nM | 6850 nM | 36.2 µM | > 50 µM | 8530 nM | 41.1 µM | 29.5 µM | – | 27.4 µM
C[C@]12CCC(=O)C(OC(=O)c3ccc([N+](=O)[O-])cc3)=C1CCC2=O | > 100 µM | > 100 µM | > 100 µM | > 100 µM | – | > 100 µM | > 100 µM | > 100 µM | > 100 µM | – | – | – | – | – | – | – | – | – | – | –
COc1cc(OC)c(C(=O)c2cccs2)cc1N | > 100 µM | > 100 µM | > 100 µM | > 100 µM | > 100 µM | > 100 µM | > 100 µM | > 100 µM | > 100 µM | – | – | – | – | – | – | – | – | – | – | –
CN1CN(C2OC(CO)C(O)C2O)c2nc(N)[nH]c(=O)c21 (configuration not stated) | > 100 µM | > 100 µM | – | > 100 µM | > 100 µM | > 100 µM | > 100 µM | > 100 µM | > 100 µM | – | – | – | – | – | – | – | – | – | – | –
COc1cc(/C=C(\NC(=O)c2ccccc2)c2nc3ccc4c(c3[nH]2)C(=O)c2ccccc2C4=O)cc(OC)c1OC | > 100 µM | > 100 µM | > 100 µM | > 100 µM | 13.5 µM | > 100 µM | > 100 µM | > 100 µM | > 100 µM | – | – | – | – | – | – | – | – | – | – | –
N#CC(C(=O)C(=O)Nc1ccccc1)c1ccccc1 (configuration not stated) | > 100 µM | – | > 100 µM | > 100 µM | > 100 µM | > 100 µM | > 100 µM | – | > 100 µM | – | – | – | – | – | – | – | – | – | – | –
O=C1C(=O)N(c2ccc(Cl)cc2)C(=O)C(=O)C1c1nc2ccccc2o1 | > 100 µM | > 100 µM | > 100 µM | > 100 µM | > 100 µM | > 100 µM | > 100 µM | > 100 µM | > 100 µM | – | – | – | – | – | – | – | – | – | – | –
O=c1c2ccc(S(=O)(=O)c3ccc4c(=O)n5c6ccccc6nc5c5cccc3c45)c3cccc(c32)c2nc3ccccc3n12 | > 100 µM | – | > 100 µM | 35.5 µM | > 100 µM | > 100 µM | > 100 µM | > 100 µM | > 100 µM | – | – | – | – | – | > 100 µM | – | – | – | – | –
O=C(O)C[C@@H](Cl)[C@H](NC(=O)OCc1ccccc1)C(=O)O | > 100 µM | > 100 µM | > 100 µM | > 100 µM | > 100 µM | > 100 µM | > 100 µM | > 100 µM | > 100 µM | – | – | – | – | – | – | – | – | – | – | –
COc1cc(Oc2c(C)c(Cl)c(OC)c(Cl)c2OC)c2c(c1Cl)COC2=O | 68.4 µM | > 100 µM | > 100 µM | > 100 µM | > 100 µM | > 100 µM | > 100 µM | 49.2 µM | > 100 µM | – | – | – | – | – | – | – | – | – | – | –
NCCc1ccc(S(=O)(=O)F)cc1 | > 100 µM | – | > 100 µM | > 100 µM | > 100 µM | > 100 µM | > 100 µM | > 100 µM | > 100 µM | 58.2 µM | – | > 100000 nM | 51100 nM | 42.8 µM | > 100 µM | 59100 nM | > 100 µM | > 100 µM | > 100 µM | 95.1 µM
CCC(=O)N1C(=O)OCC1C(C)C (configuration not stated) | > 100 µM | > 100 µM | > 100 µM | > 100 µM | > 100 µM | > 100 µM | > 100 µM | > 100 µM | > 100 µM | – | – | – | – | – | – | – | – | – | – | –
CC(C)C12Cc3c(ccc4ccccc34)OC1(C)Oc1ccc3ccccc3c1C2 (configuration not stated) | > 100 µM | – | > 100 µM | > 100 µM | > 100 µM | > 100 µM | > 100 µM | > 100 µM | – | – | – | – | – | – | – | – | – | – | – | –
N/N=C1\C(=O)N(Cc2ccccc2)C(=O)C1C(=O)NCc1ccccc1 (configuration not stated) | > 100 µM | > 100 µM | – | > 100 µM | > 100 µM | > 100 µM | > 100 µM | > 100 µM | > 100 µM | – | – | – | – | – | – | – | – | – | – | –
O=S(=O)([O-])c1ccc(N=Cc2ccccc2[O-])cc1.O=S(=O)([O-])c1ccc(N=Cc2ccccc2[O-])cc1.[Co+2] | > 100 µM | – | – | – | > 100 µM | – | > 100 µM | – | > 100 µM | 76.7 µM | – | > 100000 nM | – | – | – | – | > 100 µM | 69.3 µM | – | –
Cc1ccc(Nc2nccc(N(C)c3ccc4c(C)n(C)nc4c3)n2)cc1S(N)(=O)=O | > 100 µM | – | – | > 100 µM | > 100 µM | > 100 µM | > 100 µM and > 10 µM and 27 µM | 10.8 µM | > 10 µM and 51.5 µM | 4.03 µM and 2.8 µM and 5.96 µM | – | 5010 nM and 2600 nM and 5560 nM | 2880 nM and 479 nM and 3930 nM | 4.98 µM and 7.27 µM and 7.73 µM | > 100 µM | 2410 nM | – | 3.13 µM and 0.539 µM and 4.67 µM | 4.03 µM and 0.49 µM and 4.68 µM | 3.35 µM and 0.95 µM and 8.12 µM
O=S(=O)(CCN1CCOCC1)Nc1cc(-c2ccc3ncnc(Nc4ccc(F)c(Cl)c4)c3c2)cnc1Cl | > 100 µM | – | 3.15 µM | 10.5 µM | 2.13 µM | 17.7 µM | 24 µM | 1.58 µM | 8.12 µM | 0.41 µM | – | 2640 nM | 414 nM | 0.36 µM | 15.1 µM | 313 nM | 0.498 µM | 0.267 µM | 0.674 µM | 0.909 µM
CC(CC(=O)N1C(=O)C(C)(C)[C@@H](O)[C@H]1CC(C)C(Cl)(Cl)Cl)C(Cl)(Cl)Cl (some centres not stated) | > 100 µM | > 100 µM | > 100 µM | > 100 µM | > 100 µM | > 100 µM | > 100 µM | > 100 µM | > 100 µM | – | – | – | – | – | – | – | – | – | – | –
COC(OC)c1cc2c(cc1C=O)OCO2 | > 100 µM | – | – | > 100 µM | > 100 µM | > 100 µM | > 100 µM | > 100 µM | > 100 µM | – | – | – | – | – | – | – | – | – | – | –
CO[C@@H]1C=C[C@@]23c4cc5c(cc4CN(C[C@@H]2O)[C@H]3C1)OCO5 | > 100 µM | – | 80.9 µM | 73.1 µM | 62.2 µM | > 100 µM | > 100 µM | – | > 100 µM | – | – | – | – | – | – | – | – | – | – | –
CSCS(=O)C[C@H](CO)NC(=O)/C=C/c1c(C)[nH]c(=O)[nH]c1=O (some centres not stated) | 5.23 µM | 2 µM and 2.06 µM | 2.07 µM and 3.87 µM | 3.63 µM and 1.91 µM | 10.2 µM and 4.26 µM | 10 µM and 12.2 µM | 7.6 µM and 3.98 µM | 5.07 µM and 5.39 µM | 7.79 µM and 4.86 µM | – | 0.434 µM | 1950 nM | 449 nM | – | – | 1700 nM | 2.22 µM | 2.97 µM | 2.3 µM | 0.498 µM and 0.297 µM
COc1ccc(/C=C2\CN(C(=O)C(Cl)Cl)C/C(=C\c3ccc(OC)cc3)C2=O)cc1 | 3.86 µM | – | 0.766 µM | – | 2.61 µM | – | 1.16 µM | – | – | 1.88 µM | – | 332 nM | 251 nM | – | – | – | – | 1.33 µM | – | –
